Reference: patent publication US20250302768A1, “NANOPARTICLE DOPED POLYETHYLENE GLYCOL BASED GELS AND MEDICAL DEVICES FOR DRUG DELIVERY” (priority 2022, published 2025)

Key:
[1] = drug elution from cured MAPLAPEG gel strips in phosphate buffered saline; format: physicochemical; conditions: eluted from MAPLAPEG polymers; 250 mg gel strip in 5 ml phosphate buffered saline; sampled 0.25 to 28 days; n=4
Description: Methacrylated poly(lactic acid-co-ethylene glycol) (MAPLAPEG) macromers were synthesized with microwave synthesis with a lactate degree of polymerization (DP) of 4 and PEG400 (DP 9.5). Chitosan nanoparticles (CNP) were synthesized using ionic gelation and ketorolac tromethamine was loaded into the CNPs. For polymerization, the MAPLAPEG macromers were mixed with 10 mg/mL Phenylbis(2,4,6-trimethylbenzoyl) phosphine oxide initiator at a ratio of 1 μL each 20 μL of macromer and exposed to UV radiation at 395 nm for two minutes to form a 250 mg gel strip with the dimensions of 5 mm×3 mm×20 mm. The test groups were formed as follows: (1) gel and antibiotic; (2) gel loaded with antibiotic and CNPs; (3) gel loaded with antibiotic and (4) gel and ketorolac loaded CNPs. Gels loaded with only ketorolac loaded CNPs were used as controls for ketorolac elution. […] Eluent concentrations were measured using UV visible spectrometry. Gentamicin sulfate samples were treated with O-phthalaldehyde and the fluorescence was measured after complexation.
FIGS. 1A-1C depict the release rates of vancomycin, gentamicin and ketorolac from the gels loaded only with antibiotics and those loaded also with particles and those loaded with particles containing ketorolac. […] The sample size for each group was four and standard deviation was calculated for each sample group.

[2] = test system: Staphylococcus aureus; conditions: reference values the eluted concentrations are compared with; cited from earlier work

CN[C@H](CC(C)C)C(=O)N[C@H]1C(=O)N[C@@H](CC(N)=O)C(=O)N[C@H]2C(=O)N[C@H]3C(=O)N[C@H](C(=O)N[C@H](C(=O)O)c4cc(O)cc(O)c4-c4cc3ccc4O)[C@H](O)c3ccc(c(Cl)c3)Oc3cc2cc(c3O[C@@H]2O[C@H](CO)[C@@H](O)[C@H](O)[C@H]2O[C@H]2C[C@](C)(N)[C@H](O)[C@H](C)O2)Oc2ccc(cc2Cl)[C@H]1O [Vancomycin, vancomycin]
time eluted concentration maintained above the MIC [1]: 4 weeks | minimum inhibitory concentration (MIC) [2]: 0.5 to 2 µg/mL

gentamicin
time eluted concentration maintained above the MIC [1]: 4 weeks | minimum inhibitory concentration (MIC) [2]: 1.5 to 3 µg/mL
